Measurements taken from patent publication US9611457B2, “Triazine derivatives as differentiation catalysts” (TECHNISCHE UNIVERSITAET WIEN, priority 2011, dated 2017).

Key:
[1] = tested on: Atrial natriuretic factor (ANF) expression, C2C12 cells; assay: ANF test (ANF promoter luciferase reporter) in C2C12 cells; type: cell-based, murine; parameters: key to Evaluation (luminescence in relation to the blank): −: decrease of luminescence compared to the blank value; +: measurable increase; ++: at least 1.5-fold increase; +++: at least 2-fold increase; conditions: for Evaluation (luminescence in relation to the blank): C2C12 cells (*), compound 1 μM in DMSO, relative to DMSO blank
Description: (§1) Atrial natriuretic factor (ANF) or atrial natriuretic peptide (ANP) is a cyclic peptide hormone made up of 28 amino acids, which is predominantly emitted by the muscle cells (myocytes) of the atrium of the heart. It is stored in the atrium as a pro-hormone made of 126 amino acids and is cleaved by serine protease corine into an N-terminal part and the biologically active ANF, which is often used as a cardiac-specific marker protein. In cell differentiation measurements, i.e. in determining the extent to which certain cells have become “cardiac cell-like” by differentiation, often a reporter gene located downstream of the ANF gene is used, as it expression product is easier to detect than the concentration of ANF in a cellular culture, for example, a luciferase gene. Luciferase in an enzyme which catalyzes the oxidation of a luminescent substrate (luciferine). While that happens, light is emitted, and the intensity of that light is correlated with the expression level of ANF and can therefore serve as a measure of ANF expression.
(§2) Initial attempts of ANF expression screenings were performed with P19 cells, i.e. murine embryonal carcinoma cells obtained from the ATCC, or C2C12 cells, i.e. a murine myoblast cell line, as models. In preparation, a plasmid was first constructed by amplifying a gene fragment containing a rat ANF promoter region and subcloning it into the PCL3-BV luciferase reporter plasmid of Promega. The P19 cells were temporarily transfected with said plasmid and cultured in Modified Eagle's Medium alpha (MEM-α) with 7.5% neonatal calf serum and 2.5% fetal bovine serum at 37° C. under 5% CO2 in monolayers for 8 days, during which the medium was exchanged three times. The respective compounds were added at about 60% confluence in DMSO as solvents at a concentration of 1 μM or DMSO alone (as a blank). The luminescence of the samples was measured with a Perkin Elmer Victor V 1420 Multilabel Counter. Their increase or decrease in the presence of the compounds of formula (I) is given in Table 1 below in relation to the blank.
(§3) The evaluations have the following meanings: • − decrease of luminescence compared to the blank value; • + measurable increase; • ++ at least 1.5-fold increase; • +++ at least 2-fold increase; • * represents C2C12 cells; and • ** represents P19 cells.

[2] = tested on: Atrial natriuretic factor (ANF) expression, P19 cells; assay: ANF test (ANF promoter luciferase reporter) in P19 cells; type: cell-based, murine; parameters: key to Evaluation (luminescence in relation to the blank): −: decrease of luminescence compared to the blank value; +: measurable increase; ++: at least 1.5-fold increase; +++: at least 2-fold increase; conditions: for Evaluation (luminescence in relation to the blank) / fold induction at 1 µM: P19 cells (**), compound 1 μM in DMSO, 8 days culture, relative to DMSO blank; for fold induction at 1 µM: Mus musculus, 192 h, read-out: Evaluation (luminescence in relation to the blank)
Description: as §1, §2, §3

[3] = tested on: zebrafish embryos; conditions: literature (Peterson et al.); cited from earlier work

Row | SMILES | melting point [°C] | Evaluation (luminescence in relation to the blank) [2] | fold induction at 1 µM [2] | further results
1 | COc1ccc(Nc2nc(Cl)nc(NCCCO)n2)cc1 [(2), 3-[4-chloro-6-(4-methoxyphenylamino)-1,3,5-triazin-2-ylamino]propan-1-ol] | 155 to 159 | – | – | Evaluation (luminescence in relation to the blank) [1]: ++* (at least 1.5-fold increase); efficiency in ANF test, stated in words ([1]; C2C12 cells, 1 μM): very good efficiency
2 | COC(=O)c1cccc(Nc2nc(Oc3ccccc3)nc(Oc3ccc(OC)cc3)n2)c1 [(11), 3-{[4-(4-methoxyphenoxy)-6-phenoxy-1,3,5-triazin-2-yl]amino}benzoic acid methyl ester] | 56 to 60 | −** | – | –
3 | O=C(O)c1cccc(Nc2nc(Oc3ccccc3)nc(Oc3cccc(Cl)c3)n2)c1 [(30), 3-{[4-(3-chlorophenoxy)-6-phenoxy-1,3,5-triazin-2-yl]amino}benzoic acid] | 227 to 230 | – | ≥ 1.5 | –
4 | O=C(O)c1cccc(Nc2nc(Oc3ccccc3)nc(Oc3ccccc3Cl)n2)c1 [(31), 3-{[4-(2-chlorophenoxy)-6-phenoxy-1,3,5-triazin-2-yl]amino}benzoic acid] | 249.5 to 251.5 | – | ≥ 1.5 | –
5 | CC(C)(C)c1ccc(Oc2nc(Nc3cccc(C(=O)O)c3)nc(Oc3ccccc3)n2)cc1 [(32), 3-{[4-(4-t-butylphenoxy)-6-phenoxy-1,3,5-triazin-2-yl]amino}benzoic acid] | 245 to 247 | +** | – | –
6 | COc1ccc(Oc2nc(Nc3cccc(C(=O)O)c3)nc(Oc3ccccc3)n2)cc1 [(33), 3-{[4-(4-methoxyphenoxy)-6-phenoxy-1,3,5-triazin-2-yl]amino}benzoic acid] | 233 to 236.5 | +** | – | –
7 | N#Cc1ccc(Oc2nc(Nc3cccc(C(=O)O)c3)nc(Oc3ccccc3)n2)cc1 [(34), 3-{[4-(4-cyanophenoxy)-6-phenoxy-1,3,5-triazin-2-yl]amino}benzoic acid] | 150 | +** | – | –
8 | COc1ccc(Oc2nc(Nc3cccc(C(=O)O)c3)nc(Oc3ccc(C#N)cc3)n2)cc1 [(38), 3-{[4-(4-cyanophenoxy)-6-(4-methoxyphenoxy)-1,3,5-triazin-2-yl]-amino}benzoic acid] | 240.5 to 242.5 | – | ≥ 1.5 | –
9 | OCc1ccc(Nc2nc(Oc3ccccc3)nc(Oc3ccccc3)n2)cc1 [(39), {4-[(4,6-diphenoxy-1,3,5-triazin-2-yl)amino]phenyl}methanol] | 152.5 to 154 | – | ≥ 2 | –
10 | OCc1cccc(Nc2nc(Oc3ccccc3)nc(Oc3ccccc3)n2)c1 [(40), {3-[(4,6-diphenoxy-1,3,5-triazin-2-yl)amino]phenyl}methanol] | 49 to 52 | +** | – | –
11 | OCc1cccc(Nc2nc(Oc3ccccc3)nc(Oc3ccc(Cl)cc3)n2)c1 [(41), {3-[(4-(4-chlorophenoxy)-6-phenoxy-1,3,5-triazin-2-yl)amino]phenyl}-methanol] | 110.5 to 114 | −** and (41) (p-chloro): − | – | –
12 | COc1ccc(Nc2nc(Cl)nc(NCCO)n2)cc1 [Compound (1), 2-[4-chloro-6-(4-methoxyphenylamino)-1,3,5-triazin-2-ylamino]ethanol] | 169 to 173 | – | – | Evaluation (luminescence in relation to the blank) [1]: +*
13 | O=C(O)c1cccc(Nc2nc(Oc3ccccc3)nc(Oc3ccccc3)n2)c1 [DTAB, 3-[(4.6-diphenoxy-1,3,5-triazin-2-yl)amino]benzoic acid, reference compound] | – | −* −** | – | Evaluation (luminescence in relation to the blank) [1]: −* −**; ANF expression level / efficiency, stated in words ([2]; ANF test, P19 cells (DTAB and summary statements also cover C2C12)): substantially no changes in the ANF expression level were found, even a slight decrease; influence on embryo development [3]: substantial influence on the formation of the anterior-posterior (A-P) axis and organ development in embryos

Now from value to compound, other results behind:

Row | melting point [°C] | SMILES | Evaluation (luminescence in relation to the blank) [2] | fold induction at 1 µM [2] | further results
14 | 116.5 to 120 | COC(=O)c1cccc(Nc2nc(Oc3ccccc3)nc(Oc3ccc(C#N)cc3)n2)c1 [(12), 3-{[4-(4-cyanophenoxy)-6-phenoxy-1,3,5-triazin-2-yl]amino}benzoic acid methyl ester] | −** | – | –
15 | 244 to 247 | O=C(O)c1cccc(Nc2nc(Oc3ccccc3)nc(Oc3ccc(Cl)cc3)n2)c1 [(29), 3-{[4-(4-chlorophenoxy)-6-phenoxy-1,3,5-triazin-2-yl]amino}benzoic acid] | – | ≥ 2 | –
16 | 225 to 228 | O=C(O)c1cccc(Nc2nc(Oc3ccccc3)nc(Oc3cccc([N+](=O)[O-])c3)n2)c1 [(35), 3-{[4-(3-nitrophenoxy)-6-phenoxy-1,3,5-triazin-2-yl]amino}benzoic acid] | – | ≥ 1.5 | –
17 | 217.5 to 220 | COc1cc(C=O)ccc1Oc1nc(Nc2cccc(C(=O)O)c2)nc(Oc2ccccc2)n1 [(36), 3-{[4-(4-formyl-2-methoxyphenoxy)-6-phenoxy-1,3,5-triazin-2-yl]-amino}benzoic acid] | – | ≥ 2 | increased ANF expression (peak value) ([2]; P19 cells, 1 μM, relative to blank): more than threefold
18 | 52 to 54 | OCc1cccc(Nc2nc(Oc3ccccc3)nc(Oc3ccccc3Cl)n2)c1 [(43), {3-[(4-(2-chlorophenoxy)-6-phenoxy-1,3,5-triazin-2-yl)amino]phenyl}-methanol] | −** and (43) (o-chloro): − | – | –
19 | 47 to 50 | CC(C)(C)c1ccc(Oc2nc(Nc3cccc(CO)c3)nc(Oc3ccccc3)n2)cc1 [(44), {3-[(4-(4-t-butylphenoxy)-6-phenoxy-1,3,5-triazin-2-yl)amino]phenyl}-methanol] | – | ≥ 2 | –
